The results in this text go back to US20160376659A1, “Breast Cancer Biomarker” (The University of Manchester, priority 2015, published 2016).

The test system of one assay is Notch4. In words: Notch4 activity in MCF7, MDA-MB-231 and BT474 cells. The format is cell-based.
The test system of a further assay is Notch1. Put plainly: Notch1 activity in MCF7, MDA-MB-231 and BT474 cells. In kind it is cell-based.

Entries after “also recorded” stand apart in the source; their conditions may differ.

On to `C[C@H](NC(=O)Cc1cc(F)cc(F)c1)C(=O)N[C@@H]1C(=O)N(C)c2ccccc2-c2ccccc21` [DBZ], for which the Notch4 activity entry with Notch4 is given as “no Notch4; also recorded: not NOTCH4 activity”. For the same compound, the Notch1 activity result with Notch1 is “inhibit”.
For `C[C@H](NC(=O)Cc1cc(F)cc(F)c1)C(=O)N[C@H](C(=O)OC(C)(C)C)c1ccccc1` [DAPT], in that order: “no Notch4; also recorded: not NOTCH4 activity” and “inhibit”.
